Consider two molecules from patent US10488416B2, “Targeting breast cancer therapy based on stromal subtypes and CD146 composition” (The Regents of the University of Colorado, a Body Corporate, priority 2014, dated 2019).

This assay has as its system MCF7 cells. Briefly: MCF7 invasion scratch wound assay through Matrigel in CAF conditioned media. The assay is classed as cell-based, human. As to conditions: for effect on CD146neg CAF induced invasion: MCF7 in CD146neg CAF conditioned media.

Regarding `COc1cc2ncnc(Nc3ccc(F)c(Cl)c3)c2cc1OCCCN1CCOCC1` [gefitinib], the “effect on CD146neg CAF induced invasion” value is “successfully blocked”. In addition, the “effect on CD146neg CAF induced invasion” value (listed as gefitibib) was “inhibited”.

B1: HBEGF: HBEGF added to CD146pos CAF conditioned media in the invasion assay (protein, UniProt Q99075 63-148, looked up)
Heparin-binding EGF-like …: DLQEADLDLLRVTLSSKPQALATPNKEEHGKRKKKGKGLGKKRDPCLRKYKDFCIHGECKYVKELRAPSCICHPGYHGERCHGLSL
Turning to B1, the effect on invasion entry (MCF7 in CD146pos CAF conditioned media) is “stimulated”.
